These results are taken from PubChem BioAssay (NCI).

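Briefly, cells in 96-well plates were exposed to five compound concentrations for 48 h, and endpoints were estimated by linear interpolation. The concentration for full growth arrest is given as TGI.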 A value given as a limit tells only on which side of the number the result lay.

What all share (test): DTP human tumour cell line panel, 48 h
The test system of experiment [1] is NCI-H460 lung.
Experiment [2] concerns BT-549 breast.
In experiment [3] the test system is M14 melanoma.
For experiment [4], the system named is OVCAR-4 ovarian.
Experiment [5] has as its system RXF 393 renal.
Experiment [6] concerns SR leukemia.
For experiment [7], the system named is UACC-257 melanoma.
Experiment [8] concerns A549 NSCLC.
Experiment [9] deals with HOP-62 NSCLC.
The test system of experiment [10] is SK-MEL-2 melanoma.
Experiment [11] relates to EKVX NSCLC.
Experiment [12] relates to K-562 leukemia.
Experiment [13] deals with 786-0 renal.
Experiment [14] has as its system SW-620 colon.
Experiment [15] relates to SK-MEL-28 melanoma.
Experiment [16] relates to SF-295 CNS.
In experiment [17] the test system is OVCAR-5 ovarian.
The subject of experiment [18] is UO-31 renal.
In experiment [19] the test system is KM12 colon.
Experiment [20] has as its system A498 renal.

Broadly, the TGI is the concentration giving total growth inhibition. Read a low TGI as more potent growth arrest. For `CC(=O)N1C(Nc2nccs2)CCN1c1ccccc1` (configuration not stated), the TGI in [1], in experiment [2], in experiment [3], in experiment [4], in experiment [5] and in [6] was greater than 10 µM each time. The total growth inhibition concentration (TGI) in [7], in experiment [8], in experiment [9], in [10], in experiment [11] and in experiment [12] was greater than 10 µM throughout. The TGI in experiment [13], in [14], in experiment [15], in [16] and in [17] was greater than 10 µM in each case.
As for `Cc1ccc(S(=O)(=O)N2CCSCCSCCSCCN(S(=O)(=O)c3ccc(C)cc3)CC2)cc1`, the total growth inhibition concentration (TGI) in experiment [1], in experiment [2], in experiment [3], in experiment [4], in [5] and in experiment [18] was greater than 100 µM in each case. Also, the concentration for total growth inhibition (TGI) in experiment [7], in [19], in [8], in experiment [9], in [10] and in experiment [11] was greater than 100 µM throughout. Further, the TGI in [12], in experiment [13], in experiment [14], in experiment [15], in [20] and in [16] was greater than 100 µM throughout. This molecule also yielded a concentration for total growth inhibition (TGI) in experiment [17] greater than 100 µM.
On to `Cc1cc(O)c(/C=N/C(=S)Nc2ccc(S(N)(=O)=O)cc2)c(=O)o1`, for which the total growth inhibition concentration (TGI) in [1], in experiment [2], in [3], in experiment [4], in experiment [5] and in [18] was greater than 100 µM each time. The TGI in experiment [7], in experiment [19], in experiment [8], in [9], in [10] and in [11] was greater than 100 µM throughout. For the same molecule, the TGI in experiment [13], in experiment [14], in experiment [15], in experiment [20], in experiment [16] and in [17] was greater than 100 µM throughout.
`O=C(Nc1ccccc1)OCCN=C1c2ccccc2CCc2ccccc21`: the TGI in [1] was 44.4 µM; in [2], 42.1 µM; in [3], 45.1 µM; in experiment [4], greater than 100 µM; in [5], 50.2 µM; in experiment [6] it was 38.9 µM. Further, the TGI in experiment [18] is 43.7 µM; in experiment [7], 54.2 µM; in experiment [19] it was 33.1 µM; in experiment [8] it was greater than 100 µM; in experiment [9], 49.4 µM; in experiment [10], 30.3 µM. In addition, the concentration for total growth inhibition (TGI) in experiment [11] was greater than 100 µM; in experiment [12], 60.9 µM; in experiment [13] it was greater than 100 µM; in [14], greater than 100 µM; in [15] it was 28.7 µM; in [16], 34.1 µM. The TGI in experiment [17] stood at 63.5 µM.
With `NC(=O)[N+](=CC(=S)Nc1ccccc1Cl)C(N)=O`, the concentration for total growth inhibition (TGI) in experiment [1], in [2], in experiment [3], in experiment [4], in [5] and in experiment [6] was greater than 100 µM each time. For the same molecule, the TGI in experiment [18], in experiment [7], in [19], in experiment [8], in [9] and in experiment [10] was greater than 100 µM each time. The total growth inhibition concentration (TGI) in experiment [11], in experiment [12], in experiment [13], in [14], in [16] and in [17] was greater than 100 µM throughout.
With `Cn1nnc2c3c(N(CCO)CCO)ccnc3ccc21`, the TGI in [1], in experiment [2], in [3], in [4], in [5] and in experiment [6] was greater than 100 µM each time. The concentration for total growth inhibition (TGI) in experiment [18], in experiment [7], in [19], in experiment [8], in [9] and in experiment [10] was greater than 100 µM throughout. Besides, the concentration for total growth inhibition (TGI) in [11], in experiment [12], in experiment [13], in experiment [14], in experiment [16] and in experiment [17] was greater than 100 µM throughout.
As for `CC(=O)/C(=C\I)c1ccccc1`, the TGI in [1] stood at 24.7 µM; in [2], 3.39 µM; in [3] it was 4.4 µM; in [5], 3.36 µM; in experiment [18], 10.3 µM; in experiment [7] it was 15.5 µM. Also, the TGI amounted to 13.3 µM in experiment [19]; 30 µM in experiment [8]; 46.9 µM in [9]; 4.75 µM in experiment [10]; 33.3 µM in experiment [11]; 4.61 µM in experiment [12]. In addition, the total growth inhibition concentration (TGI) in experiment [13] was found to be 4.13 µM; in experiment [14] it was 2.82 µM; in experiment [15], 10.4 µM; in experiment [20], 32.3 µM; in experiment [16] it was 33.7 µM; in [17], 2.99 µM.
Take `O=C1NC2(CCNCC2)Oc2ccccc21`: the total growth inhibition concentration (TGI) in experiment [1], in experiment [2], in experiment [3], in experiment [4], in experiment [5] and in experiment [6] was greater than 100 µM throughout. Besides, the total growth inhibition concentration (TGI) in experiment [18], in experiment [7], in experiment [19], in [8], in [9] and in [10] was greater than 100 µM each time. Also, the concentration for total growth inhibition (TGI) in [11], in experiment [12], in experiment [13], in experiment [14], in [15] and in experiment [16] was greater than 100 µM throughout. The same molecule gave a total growth inhibition concentration (TGI) in experiment [17] greater than 100 µM.
For the molecule `COc1cc([C@@H]2c3cc4c(cc3[C@@H](Nc3ccc(Cl)cc3C(=O)c3ccccc3)[C@H]3COC(=O)[C@H]23)OCO4)cc(OC)c1OC`, the concentration for total growth inhibition (TGI) in [1], in [2], in experiment [3], in experiment [4], in [18] and in experiment [7] was greater than 100 µM in each case. In addition, the TGI in [8], in [9], in experiment [10], in [11], in experiment [12] and in experiment [13] was greater than 100 µM each time. Moreover, the TGI in experiment [14] is greater than 100 µM; in experiment [15] it was 78.4 µM; in [20] it was 5.27 µM; in [17], greater than 100 µM.
As for `Cc1nn(C(=O)c2ccncc2)c2c1C(c1ccccc1[N+](=O)[O-])SC(N)=N2` (configuration not stated), the TGI in [1], in experiment [2], in experiment [3], in experiment [4], in [5] and in experiment [6] was greater than 10 µM each time. Besides, the total growth inhibition concentration (TGI) in experiment [7], in experiment [19], in experiment [8], in experiment [9], in [10] and in [11] was greater than 10 µM each time. Moreover, the total growth inhibition concentration (TGI) in experiment [12], in [13], in experiment [14], in experiment [15], in experiment [16] and in experiment [17] was greater than 10 µM each time.
For `O=C(Cn1c2ccc(Br)cc2c2nc3ccccc3nc21)Nc1ccccc1`, the TGI was greater than 100 µM in experiment [1]; greater than 100 µM in [2]; greater than 100 µM in experiment [3]; 99.4 µM in experiment [4]; 68.7 µM in experiment [5]; greater than 100 µM in [18]. For the same molecule, the TGI was greater than 100 µM in [7]; greater than 100 µM in experiment [19]; 38.2 µM in experiment [8]; greater than 100 µM in [9]; greater than 100 µM in experiment [10]; greater than 100 µM in [12]. Further, the total growth inhibition concentration (TGI) in [13] is 28.7 µM; in experiment [14], 66.8 µM; in experiment [15] it was greater than 100 µM; in experiment [20] it was greater than 100 µM; in experiment [16], greater than 100 µM; in [17], greater than 100 µM.
Turning to `Cc1ccc(S(=O)(=O)N/N=C2/CCC3(O)CC2(C)CCC2[C@H]3CC2(C)C)cc1` (some centres not stated), the total growth inhibition concentration (TGI) in experiment [1] was 64.3 µM; in [2], 86.4 µM; in experiment [3], greater than 100 µM; in experiment [4], greater than 100 µM; in [6] it was greater than 100 µM; in [18] it was 68.6 µM. The total growth inhibition concentration (TGI) in [7] is greater than 100 µM; in [19], greater than 100 µM; in experiment [8], greater than 100 µM; in [9], greater than 100 µM; in experiment [10], 69.2 µM; in experiment [11], greater than 100 µM. The TGI is 90.7 µM in experiment [12]; greater than 100 µM in experiment [13]; greater than 100 µM in experiment [14]; 61.2 µM in [15]; 93 µM in experiment [16]; 78.1 µM in [17].
Take `C=C1C(=O)O[C@H]2C1C[C@H](O)[C@@]1(C)OC1CC[C@@]1(C)O[C@H]21` (some centres not stated): the TGI in experiment [1] was greater than 100 µM; in experiment [2], 26.9 µM; in experiment [3] it was 30.6 µM; in experiment [4] it was 29.6 µM; in experiment [5] it was 46.9 µM; in experiment [6] it was 40.5 µM. The total growth inhibition concentration (TGI) in experiment [18] is 31 µM; in experiment [7] it was 37.8 µM; in [19], 55.1 µM; in experiment [8] it was greater than 100 µM; in experiment [9], 73.3 µM; in experiment [10], 55.3 µM. Moreover, the TGI is 38.4 µM in experiment [11]; 19.7 µM in experiment [12]; 37.1 µM in experiment [13]; 33.2 µM in experiment [14]; 35.9 µM in experiment [15]; greater than 100 µM in experiment [16]. Further, the concentration for total growth inhibition (TGI) in [17] was found to be 31.5 µM.
With `CSc1nc(=O)cnn1C`, the TGI in experiment [1], in [2], in experiment [3], in experiment [4], in experiment [5] and in experiment [6] was greater than 100 µM each time. Also, the TGI in experiment [18], in [7], in experiment [19], in [8], in experiment [9] and in [10] was greater than 100 µM in each case. The TGI in [11], in experiment [12], in experiment [13], in experiment [14], in experiment [15] and in experiment [16] was greater than 100 µM in each case. Also, in experiment [17], the total growth inhibition concentration (TGI) is greater than 100 µM.
Turning to `COc1ccccc1N/C(SCc1ccccc1)=C(/C(Cl)=C(Cl)Cl)[N+](=O)[O-]`, the concentration for total growth inhibition (TGI) in [1] is greater than 100 µM; in experiment [2], 32.9 µM; in [3], greater than 100 µM; in [4], 47.7 µM; in [18] it was 34.6 µM; in [7], greater than 100 µM. Further, the concentration for total growth inhibition (TGI) in experiment [19] is greater than 100 µM; in experiment [8], greater than 100 µM; in experiment [9] it was greater than 100 µM; in experiment [10], greater than 100 µM; in experiment [11], greater than 100 µM; in experiment [12] it was 57.9 µM. Besides, the total growth inhibition concentration (TGI) is 97.8 µM in experiment [13]; 31.7 µM in experiment [14]; 28.5 µM in experiment [15]; greater than 100 µM in [20]; 59.6 µM in [16]; greater than 100 µM in [17].
